Like-named read-outs stand apart in the source and are kept apart here.
Experiment: Pharmacokinetics study: exposure in inner ear, perilymph and tail plasma after single oral dose
Type: in vivo, Wistar rats
Conditions: for Total AUC Inner ear / Total AUC Perilymph / Total AUC Tail plasma / concentration at 15 min / concentration at 30 min / concentration at 60 min / concentration at 120 min / concentration at 240 min / concentration at 480 min: 10 mg/kg p.o. single dose; for concentration at 15 min / concentration at 30 min / concentration at 60 min / concentration at 120 min / concentration at 240 min / concentration at 480 min / AUC: male, Wistar, rat; for concentration at 15 min / concentration at 30 min / concentration at 60 min / concentration at 120 min / concentration at 240 min / concentration at 480 min: oral, read-out: Average Inner ear concentration (ng azasetron free-base/g tissue); for AUC: po, 10 mg/kg, 10 mg/kg p.o., per-interval AUC of azasetron free-base
From the text: The 72 male Wistar rats received on 28 Jan. 2016 from Janvier (Janvier, Le Genest-St-Isle) were assigned to the study. They were divided in 3 groups of 24 animals each, one group per test article. Each group was divided in […] subgroups according to the 6-termination time-points.
72 Wistar rats were subjected to oral single dose administration of the test article, racemic azasetron hydrochloride, azasetron hydrochloride (+) or azasetron hydrochloride (−), and sacrificed at different time-points to assess the exposure of the test article in the inner ear, perilymph, and plasma. • Group racemic azasetron: 24 male Wistar, 4 rats per time-point: 10 mg/kg azasetron HCl dissolved in NaCl 0.9%. Administrated as 5 mL/kg p.o.; • Group azasetron (+): 24 male Wistar, 4 rats per time-point: 10 mg/kg (+)-azasetron HCl dissolved in NaCl 0.9%. Administrated as 5 mL/kg p.o.; • Group azasetron (−): 24 male Wistar, 4 rats per time-point: 10 mg/kg (−)-azasetron HCl dissolved in NaCl 0.9%. Administrated as 5 mL/kg p.o.
There were 6 termination time-points for each test article. At time-points 15/30/60/120/240/480 minutes after administration: peripheral plasma from the tail was sampled. The animals were sacrificed by i.v. administration of 0.25 mL/rat of a 160 mg/mL pentobarbital solution. Following sacrifice, the heart blood and both tympanic bullas (left and right) were sampled.
Both tympanic bullas (left and right) were collected, however, only the left one was used for the perilymph and inner ear analysis. The right bulla was stored at −20° C. for future needs when required. For animal IDs 1 and 4, the right bulla was used for the sampling of perilymph and inner ear.
The left bulla was dissected fresh. Briefly, the bulla was opened via the auditory opening to reveal the bone surrounding the cochlea after which the tip of the bone was removed with forceps and a 10 μL pipette tip was inserted to withdraw perilymph.
Upon exposure of the tip of the cochlea, 2 μL of perilymph (fluid) could be recovered from the bulla. The perilymph was brought to 10 μL by the addition of 8 μL water, and then extract via the addition of 30 μL of acetonitrile. After that, the samples were centrifuged and the supernatant was transferred to a glass vial appropriate for the HPLC-MS auto-sampler.
Following recovering of the perilymph, the bones of the inner ear and cochlea components were removed with fine forceps and added to a tared Eppendorf tube. The collection was weighed and brought to 10 mg with the addition of water and placed on ice until extraction. 30 μL of acetonitrile was added and the tubes were incubated in an ultrasound bath, after which they were centrifuged and the supernatant was transferred to a glass vial appropriate for the HPLC-MS auto-sampler. In the process or removing the bones of the inner ear, they were finely distributed in the media and broken by forceps. (Due to the very low volume of the tissue and its fine structure, separate grinding is considered risky vs the potential losses to plastic and media. The materials are very fine in nature and the bone particles are small thus providing only short interfaces to media. The absence of fat and the incubation in solvent is intended to provide sufficient solubility of active ingredient).
The acetonitrile used in the sample preparation for bio-analysis contained the internal standard for the HPLC-MS analysis.
30 μL acetonitrile including the internal standard were added to each 10 μL plasma sample. After adding the acetonitrile, the samples were mixed by vortex and further centrifuged. The supernatant was transferred to a glass vial appropriate for the HPLC-MS auto-sampler.
The LC system comprised an Agilent 1260 liquid chromatography equipped with a binary pump and a column oven, together with a PAL HTS-xt auto-sampler. It is linked to the AB SCIEX TRIPLE QUADTM 4500 (triple-quadrupole) instrument with an ESI interface and a switching valve integrated (Mass spectrometric analysis). […]

[1] = inner ear, Time 15 (min), read-out: Inner ear AUC (converted)
[2] = inner ear, Time 30 (min), read-out: Inner ear AUC (converted)
[3] = inner ear, Time 60 (min), read-out: Inner ear AUC (converted)
[4] = inner ear, Time 120 (min), read-out: Inner ear AUC (converted)
[5] = inner ear, Time 240 (min), read-out: Inner ear AUC (converted)
[6] = inner ear, Time 480 (min), read-out: Inner ear AUC (converted)
[7] = perilymph, Time 15 (min), read-out: Perilymph AUC (converted)
[8] = perilymph, Time 30 (min), read-out: Perilymph AUC (converted)
[9] = perilymph, Time 60 (min), read-out: Perilymph AUC (converted)
[10] = perilymph, Time 120 (min), read-out: Perilymph AUC (converted)
[11] = perilymph, Time 240 (min), read-out: Perilymph AUC (converted)
[12] = perilymph, Time 480 (min), read-out: Perilymph AUC (converted)
[13] = tail plasma, Time 15 (min), read-out: Tail plasma AUC (converted)
[14] = tail plasma, Time 30 (min), read-out: Tail plasma AUC (converted)
[15] = tail plasma, Time 60 (min), read-out: Tail plasma AUC (converted)
[16] = tail plasma, Time 120 (min), read-out: Tail plasma AUC (converted)
[17] = tail plasma, Time 240 (min), read-out: Tail plasma AUC (converted)
[18] = tail plasma, Time 480 (min), read-out: Tail plasma AUC (converted)

SMILES | Total AUC Inner ear | Total AUC Perilymph | Total AUC Tail plasma | concentration at 15 min (inner ear, Time 15 (min)) | concentration at 30 min (inner ear, Time 30 (min)) | concentration at 60 min (inner ear, Time 60 (min)) | concentration at 120 min (inner ear, Time 120 (min)) | concentration at 240 min (inner ear, Time 240 (min)) | concentration at 480 min (inner ear, Time 480 (min)) | AUC [1] | AUC [2] | AUC [3] | AUC [4] | AUC [5] | AUC [6] | AUC [7] | AUC [8] | AUC [9] | AUC [10] | AUC [11] | other results
CN1C(=O)COc2c(C(=O)NC3CN4CCC3CC4)cc(Cl)cc21 (racemic) [Racemic azasetron, N-(1-azabicyclo[2.2.2]octan-8-yl)-6-chloro-4-methyl-3-oxo-1,4-benzoxazine-8-carboxamide] | 43592 nM·min | 25873 nM·min | 177194 nM·min | 25 ng/g | 61 ng/g | 63 ng/g | 35 ng/g | 37 ng/g | 7 ng/g | 0.0119 µM·h | 0.0336 µM·h | 0.0887 µM·h | 0.14 µM·h | 0.204 µM·h | 0.248 µM·h | 0.0183 µM·h | 0.0328 µM·h | 0.0455 µM·h | 0.0635 µM·h | 0.117 µM·h | AUC [12]: 0.154 µM·h; AUC [13]: 0.168 µM·h; AUC [14]: 0.263 µM·h; AUC [15]: 0.309 µM·h; AUC [16]: 0.374 µM·h; AUC [17]: 0.758 µM·h; AUC [18]: 1.08 µM·h
CN1C(=O)COc2c(C(=O)N[C@H]3CN4CCC3CC4)cc(Cl)cc21 [(+)-azasetron] | 69036 nM·min | 40910 nM·min | 210768 nM·min | 57 ng/g | 86 ng/g | 93 ng/g | 79 ng/g | 52 ng/g | 6 ng/g | 0.0204 µM·h | 0.051 µM·h | 0.127 µM·h | 0.246 µM·h | 0.375 µM·h | 0.331 µM·h | 0.0194 µM·h | 0.0297 µM·h | 0.0517 µM·h | 0.129 µM·h | 0.227 µM·h | AUC [12]: 0.225 µM·h; AUC [13]: 0.0983 µM·h; AUC [14]: 0.192 µM·h; AUC [15]: 0.35 µM·h; AUC [16]: 0.622 µM·h; AUC [17]: 1.11 µM·h; AUC [18]: 1.14 µM·h; exposure (total AUC) to azasetron in the perilymph, inner ear, and plasma versus racemic azasetron or (−)-azasetron (single equivalent oral dose (10 mg/kg)): greater exposure (total AUC)
